Source: US20060194837A1, “Tetrahydroisoquinoline compounds” (priority 2004, published 2006)

Legend:
human H3 receptor = target: T1, human H3 receptor (Homo sapiens, UniProt Q9Y5N1); test: H3 receptor binding (N-[3H]-α-methylhistamine displacement); settings: membranes of SK-N-MC cells expressing cloned human H3 receptor, 0.8 nM N-[3H]-α-methylhistamine, 60 min at 25° C.
T1 construct: expressed in transfected cells

Rat SERT = target: T2, Rat SERT (Rattus norvegicus, UniProt P31652); test: Rat brain SERT binding ([3H]-citalopram displacement); settings: rat brain membranes without cerebellum, 0.6 nM [3H]-citalopram, 60 min at 25° C.; read-out: Rat SERT Ki
T2 construct: A rat brain without cerebellum (Zivic Laboratories, Inc.—Pittsburgh, Pa.) was homogenized; tissue Zivic Laboratories, Inc; host or cells: rat brain without cerebellum, membranes
Description: The supernatant was removed and re-centrifuged at 15,000 rpm for 30 min. […] Membranes were incubated with 0.6 nM [^3H]-Citalopram plus/minus test compounds for 60 min at 25° C. and harvested by rapid filtration over GF/C glass fiber filters (pretreated with 0.3% polyethylenimine) followed by four washes with ice-cold buffer.

T1 sequence (Q9Y5N1 whole entry): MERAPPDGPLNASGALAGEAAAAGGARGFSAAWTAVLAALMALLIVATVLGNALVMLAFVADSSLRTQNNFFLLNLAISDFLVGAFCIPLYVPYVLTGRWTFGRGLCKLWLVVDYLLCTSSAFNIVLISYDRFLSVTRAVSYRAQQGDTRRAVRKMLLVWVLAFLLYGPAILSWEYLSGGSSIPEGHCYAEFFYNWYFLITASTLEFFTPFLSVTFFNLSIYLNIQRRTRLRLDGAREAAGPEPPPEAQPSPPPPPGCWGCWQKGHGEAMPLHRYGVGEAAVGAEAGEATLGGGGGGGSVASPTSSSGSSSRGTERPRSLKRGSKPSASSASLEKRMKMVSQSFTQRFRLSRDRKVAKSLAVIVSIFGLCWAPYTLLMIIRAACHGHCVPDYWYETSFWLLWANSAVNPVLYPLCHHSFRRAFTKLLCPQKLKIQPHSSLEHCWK
T2 sequence (P31652 whole entry): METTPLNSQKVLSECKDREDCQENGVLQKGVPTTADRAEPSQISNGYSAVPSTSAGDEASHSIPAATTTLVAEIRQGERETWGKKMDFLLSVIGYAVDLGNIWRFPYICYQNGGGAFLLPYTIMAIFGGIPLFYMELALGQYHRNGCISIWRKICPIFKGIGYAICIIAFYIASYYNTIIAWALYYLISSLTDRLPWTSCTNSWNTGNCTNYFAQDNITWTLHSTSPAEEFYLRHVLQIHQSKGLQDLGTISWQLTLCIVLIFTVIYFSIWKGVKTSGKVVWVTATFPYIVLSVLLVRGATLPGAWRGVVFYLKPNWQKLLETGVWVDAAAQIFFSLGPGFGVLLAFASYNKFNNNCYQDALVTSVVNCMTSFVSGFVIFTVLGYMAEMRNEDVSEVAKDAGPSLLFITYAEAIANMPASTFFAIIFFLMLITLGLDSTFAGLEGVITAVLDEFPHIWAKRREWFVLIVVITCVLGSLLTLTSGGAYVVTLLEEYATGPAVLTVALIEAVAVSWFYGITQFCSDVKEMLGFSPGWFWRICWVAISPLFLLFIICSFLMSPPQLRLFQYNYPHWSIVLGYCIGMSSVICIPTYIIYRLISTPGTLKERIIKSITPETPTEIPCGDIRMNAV

Ki (human H3 receptor) | Ki (Rat SERT) | SMILES
5 nM | 3 nM | CSc1ccc(C2CN(C)Cc3cc(OCCCN4CCC(F)CC4)ccc32)cn1 (stereo not drawn) [Example 187, 7-[3-(4-Fluoro-piperidin-1-yl)-propoxy]-2-methyl-4-(6-methylsulfanyl-pyridin-3-yl)-1,2,3,4-tetrahydro-isoquinoline]
22 nM | 37 nM | CN1Cc2cc(OCCCN3CCC(F)CC3)ccc2C(c2ccc(N(C)C)nc2)C1 (stereo not drawn) [Example 188, (5-{7-[3-(4-Fluoro-piperidin-1-yl)-propoxy]-2-methyl-1,2,3,4-tetrahydro-isoquinolin-4-yl}-pyridin-2-yl)-dimethyl-amine]
29 nM | 119 nM | C#Cc1ccc(C2CN(C)Cc3cc(OCCCN4CCC(F)CC4)ccc32)cn1 (stereo not drawn) [Example 190, 4-(6-Ethynyl-pyridin-3-yl)-7-[3-(4-fluoro-piperidin-1-yl)-propoxy]-2-methyl-1,2,3,4-tetrahydro-isoquinoline]
3 nM | 9 nM | CN1Cc2cc(OCCCN3CCC(F)CC3)ccc2C(c2ccc(-n3ccnc3)nc2)C1 (stereo not drawn) [Example 192, 7-[3-(4-Fluoro-piperidin-1-yl)-propoxy]-4-(6-imidazol-1-yl-pyridin-3-yl)-2-methyl-1,2,3,4-tetrahydro-isoquinoline]
4 nM | 2000 nM | CN1Cc2cc(OCCCN3CCC(F)CC3)ccc2C(c2ccc(Sc3ncccn3)nc2)C1 (stereo not drawn) [Example 196, 7-[3-(4-Fluoro-piperidin-1-yl)-propoxy]-2-methyl-4-[6-(pyrimidin-2-ylsulfanyl)-pyridin-3-yl]-1,2,3,4-tetrahydro-isoquinoline]
15 nM | 5 nM | COc1ccc(C2CN(C)Cc3cc(OCCCN4CCN(C)CC4)ccc32)cc1 (stereo not drawn) [Example 197, 4-(4-Methoxy-phenyl)-2-methyl-7-[3-(4-methyl-piperazin-1-yl)-propoxy]-1,2,3,4-tetrahydro-isoquinoline]
134 nM | 4 nM | COc1ccc(C2CN(C)Cc3cc(OCCCN4CCN(Cc5cccs5)CC4)ccc32)cc1 (stereo not drawn) [Example 201, 4-(4-Methoxy-phenyl)-2-methyl-7-[3-(4-thiophen-2-ylmethyl-piperazin-1-yl)-propoxy]-1,2,3,4-tetrahydro-isoquinoline]
43 nM | 3 nM | COc1ccc(C2CN(C)Cc3cc(OCCCN4CCN(CCO)CC4)ccc32)cc1 (stereo not drawn) [Example 202, 2-(4-{3-[4-(4-Methoxy-phenyl)-2-methyl-1,2,3,4-tetrahydro-isoquinolin-7-yloxy]-propyl}-piperazin-1-yl)-ethanol]
504 nM | 8 nM | COc1ccc(C2CN(C)Cc3cc(OCCCN4CCN(c5ccccc5O)CC4)ccc32)cc1 (stereo not drawn) [Example 203, 2-(4-{3-[4-(4-Methoxy-phenyl)-2-methyl-1,2,3,4-tetrahydro-isoquinolin-7-yloxy]-propyl}-piperazin-1-yl)-phenol]
78 nM | 15 nM | COc1ccc(C2CN(C)Cc3cc(OCCCN4CCN(CC5OCCO5)CC4)ccc32)cc1 (stereo not drawn) [Example 207, 7-[3-(4-[1,3]-Dioxolan-2-ylmethyl-piperazin-1-yl)-propoxy]-4-(4-methoxy-phenyl)-2-methyl-1,2,3,4-tetrahydro-isoquinoline]
99 nM | 10 nM | COc1ccc(C2CN(C)Cc3cc(OCCCN4CCN(CC5CCCO5)CC4)ccc32)cc1 (stereo not drawn) [Example 210, 4-(4-Methoxy-phenyl)-2-methyl-7-{3-[4-(tetrahydro-furan-2-ylmethyl)-piperazin-1-yl]-propoxy}-1,2,3,4-tetrahydro-isoquinoline]
42 nM | 58 nM | CN1Cc2cc(OCCCN3CCC(F)CC3)ccc2C(c2ccc(SC(F)(F)F)cc2)C1 (stereo not drawn) [Example 217, 7-[3-(4-Fluoro-piperidin-1-yl)-propoxy]-2-methyl-4-(4-trifluoromethylsulfanyl-phenyl)-1,2,3,4-tetrahydro-isoquinoline]
9 nM | 11 nM | COc1ccc(C2CN(C)Cc3cc(OCCCN4CCOC[C@@H]4C)ccc32)cc1F (stereo partly drawn) [Example 221, 4-(3-Fluoro-4-methoxy-phenyl)-2-methyl-7-[3-(3S-methyl-morpholin-4-yl)-propoxy]-1,2,3,4-tetrahydro-isoquinoline]
59 nM | 5 nM | COc1ccc(C2CN(C)Cc3cc(OCCCNC4CCOCC4)ccc32)cc1 (stereo not drawn) [Example 223, {3-[4-(4-Methoxy-phenyl)-2-methyl-1,2,3,4-tetrahydro-isoquinolin-7-yloxy]-propyl}-(tetrahydro-pyran-4-yl)-amine]
61 nM | 32 nM | COc1ccc(C2CN(C)Cc3cc(OCCCN(C4CC4)C4CCN(C)CC4)ccc32)cc1 (stereo not drawn) [Example 224, Cyclopropyl-{3-[4-(4-methoxy-phenyl)-2-methyl-1,2,3,4-tetrahydro-isoquinolin-7-yloxy]-propyl}-(1-methyl-piperidin-4-yl)-amine]
46 nM | 1 nM | COCCNCCCOc1ccc2c(c1)CN(C)CC2c1ccc(OC)cc1 (stereo not drawn) [Example 225, (2-Methoxy-ethyl)-{3-[4-(4-methoxy-phenyl)-2-methyl-1,2,3,4-tetrahydro-isoquinolin-7-yloxy]-propyl}-amine]

The next lines start with the molecule.

SMILES | Ki (human H3 receptor) | Ki (Rat SERT)
CN1Cc2cc(OCCCN3CCC(F)CC3)ccc2C(c2ccc(C#C[Si](C)(C)C)nc2)C1 (stereo not drawn) [Example 189, 7-[3-(4-Fluoro-piperidin-1-yl)-propoxy]-2-methyl-4-(6-trimethylsilanylethynyl-pyridin-3-yl)-1,2,3,4-tetrahydro-isoquinoline] | 12 nM | 108 nM
CN1Cc2cc(OCCCN3CCC(F)CC3)ccc2C(c2ccc(Sc3ccccc3)nc2)C1 (stereo not drawn) [Example 191, 7-[3-(4-Fluoro-piperidin-1-yl)-propoxy]-2-methyl-4-(6-phenylsulfanyl-pyridin-3-yl)-1,2,3,4-tetrahydro-isoquinoline] | 26 nM | 69 nM
COc1ccc(C2CN(C)Cc3cc(OCCCN4CCC(F)CC4)ccc32)cn1 (stereo not drawn) [Example 193, 7-[3-(4-Fluoro-piperidin-1-yl)-propoxy]-4-(6-methoxy-pyridin-3-yl)-2-methyl-1,2,3,4-tetrahydro-isoquinoline] | 3 nM | 5 nM
CN1Cc2cc(OCCCN3CCC(F)CC3)ccc2C(c2ccc(-n3cccn3)nc2)C1 (stereo not drawn) [Example 194, 7-[3-(4-Fluoro-piperidin-1-yl)-propoxy]-2-methyl-4-(6-pyrazol-1-yl-pyridin-3-yl)-1,2,3,4-tetrahydro-isoquinoline] | 1 nM | 7 nM
COc1ccc(C2CN(C)Cc3cc(OCCCN4CCN(c5nccs5)CC4)ccc32)cc1 (stereo not drawn) [Example 200, 4-(4-Methoxy-phenyl)-2-methyl-7-[3-(4-thiazol-2-yl-piperazin-1-yl)-propoxy]-1,2,3,4-tetrahydro-isoquinoline] | 227 nM | 3 nM
COc1ccc(C2CN(C)Cc3cc(OCCCN4CCN(c5ccc(C(F)(F)F)cc5)CC4)ccc32)cc1 (stereo not drawn) [Example 205, 4-(4-Methoxy-phenyl)-2-methyl-7-{3-[4-(4-trifluoromethyl-phenyl)-piperazin-1-yl]-propoxy}-1,2,3,4-tetrahydro-isoquinoline] | 2000 nM | 44 nM
C=CCN1CCN(CCCOc2ccc3c(c2)CN(C)CC3c2ccc(OC)cc2)CC1 (stereo not drawn) [Example 206, 7-[3-(4-Allyl-piperazin-1-yl)-propoxy]-4-(4-methoxy-phenyl)-2-methyl-1,2,3,4-tetrahydro-isoquinoline] | 37 nM | 3 nM
COc1ccc(C2CN(C)Cc3cc(OCCCN4CCN(c5ccc(C#N)cc5)CC4)ccc32)cc1 (stereo not drawn) [Example 208, 4-(4-{3-[4-(4-Methoxy-phenyl)-2-methyl-1,2,3,4-tetrahydro-isoquinolin-7-yloxy]-propyl}-piperazin-1-yl)-benzonitrile] | 137 nM | 4 nM
COCCN1CCN(CCCOc2ccc3c(c2)CN(C)CC3c2ccc(OC)cc2)CC1 (stereo not drawn) [Example 209, 7-{3-[4-(2-Methoxy-ethyl)-piperazin-1-yl]-propoxy}-4-(4-methoxy-phenyl)-2-methyl-1,2,3,4-tetrahydro-isoquinoline] | 176 nM | 12 nM
COc1ccc(C2CN(C)Cc3cc(OCCCN4CCN(C(=O)OC(C)(C)C)CC4)ccc32)cc1 (stereo not drawn) [Example 211, 4-{3-[4-(4-Methoxy-phenyl)-2-methyl-1,2,3,4-tetrahydro-isoquinolin-7-yloxy]-propyl}-piperazine-1-carboxylic acid tert-butyl ester] | 823 nM | 27 nM
COc1ccc(C2CN(C)Cc3cc(OCCCN4CCN(C5CC5)CC4)ccc32)cc1 (stereo not drawn) [Example 212, 7-[3-(4-Cyclopropyl-piperazin-1-yl)-propoxy]-4-(4-methoxy-phenyl)-2-methyl-1,2,3,4-tetrahydro-isoquinoline] | 43 nM | 9 nM
CN1Cc2cc(OCCCN3CCOCC3)ccc2C(c2ccc(SC(F)(F)F)cc2)C1 (stereo not drawn) [Example 218, 2-Methyl-7-(3-morpholin-4-yl-propoxy)-4-(4-trifluoromethylsulfanyl-phenyl)-1,2,3,4-tetrahydro-isoquinoline] | 38 nM | 36 nM
C[C@H]1COCCN1CCCOc1ccc2c(c1)CN(C)CC2c1ccc(SC(F)(F)F)cc1 (stereo partly drawn) [Example 219, 2-Methyl-7-[3-(3S-methyl-morpholin-4-yl)-propoxy]-4-(4-trifluoromethylsulfanyl-phenyl)-1,2,3,4-tetrahydro-isoquinoline] | 33 nM | 39 nM
COc1ccc(C2CN(C)Cc3cc(OCCCNCCCO)ccc32)cc1 (stereo not drawn) [Example 226, 3-{3-[4-(4-Methoxy-phenyl)-2-methyl-1,2,3,4-tetrahydro-isoquinolin-7-yloxy]-propylamino}-propan-1-ol] | 107 nM | 1 nM
